LC retention time data for 112 compounds are collected here from the RepoRT retention time repository.

This data set can be described thus: Agilent ZORBAX 300 SB-C18, 150 × 1 mm, 3.5 µm; A: water + 0.01% heptafluorobutyric acid; B: acetonitrile + 0.01% heptafluorobutyric acid; gradient (min/%B) 0/0 100/90. The note with it: stereoisomer not certain.
Consider `O=C(Nc1ccccc1)C(=O)NC(CO)(CO)CO`, for which the LC retention time worked out at 8.16 min.
On to `CC(C)N(C)C(C)(C)C`, for which the LC retention time was 7.1 min.
Under `Cc1ccccn1` stands 6.01 min; under `CN(C)C(CN)c1ccco1` (configuration not stated), 7.02 min; under `CCCCc1ccc(NC(=O)c2ccc(OC(C)=O)cc2)cc1`, 16.5 min.
`CN(C)c1ccc(CCN)cc1`: the LC retention time is 7.22 min.
As for `C=CCN1CCC23c4c5ccc(O)c4OC2C(O)C=CC3C1C5` (configuration not stated), the LC retention time amounted to 8.18 min.
For `CCN(CC)CCOC(=O)c1ccc(N)cc1` the value was 8.41 min.
Take `Nc1cc(N)[nH]c(=S)n1`: the LC retention time stood at 6.42 min.
Under `O=C(O)CNC(=O)c1ccccc1` stands 7.38 min; under `CCCCOC(=O)c1ccc(NC(=O)CCCC)cc1`, 16.3 min; under `COc1ccccc1OCC(=O)N1CCNC1=O`, 8.89 min.
For `O=c1ccoc2ccccc12`, the LC retention time came to 9.31 min.
For `c1ccc(CC2CCN(Cc3ccccn3)CC2)cc1` the value was 10.1 min; for `CCCCCC(=O)OC1(C(C)=O)CCC2C3CCC4=CC(=O)CCC4(C)C3CCC21C` (configuration not stated), 21.2 min; for `Nc1ncnc(N2CCCc3ccccc32)n1`, 9.57 min.
Take `CN1CCCCC1`: the LC retention time was determined as 6.61 min.
For the compound `CCCCc1c(O)n(-c2ccc(O)cc2)n(-c2ccccc2)c1=O`, the LC retention time is 12.8 min.
As to `CC(C)CC(=O)Nc1cccc(C(=O)O)c1`, the LC retention time stood at 10.1 min.
For `Cc1nc2ccccc2nc1COc1ccc2c(c1)OCO2` the value was 14.1 min; for `CCOc1ccccc1NC(=O)c1cc(=O)[nH]c(=O)[nH]1`, 9.16 min; for `CC(=O)Nc1cccc2ncccc12`, 6.92 min.
`c1cc(CCc2ccncc2)ccn1`: the LC retention time amounted to 7.28 min.
`CC1(C)CC(=O)C=C(NCC2NCCc3ccccc32)C1` (configuration not stated): the LC retention time came out at 8.52 min.
With `COc1ccc(NC(=O)c2cc3ccccc3oc2=N)cc1`, the LC retention time was found to be 10.1 min.
As for `Nc1cccc(-c2cc3ccccc3oc2=O)c1`, the LC retention time came out at 10.4 min.
In the case of `CC(C)C(N)C(C)(C)O` (configuration not stated), the LC retention time was found to be 7.04 min.
As to `Cc1ccc(-c2cc(C(=O)O)c3ccccc3n2)cc1`, the LC retention time worked out at 12.4 min.
Under `CC1(C)SC2C(NC(=O)Cc3ccccc3)C(=O)N2C1C(=O)O` (configuration not stated) stands 10.5 min.
For the compound `NCCCCCCCCN`, the LC retention time turned out to be 7.2 min.
For `CNC(=O)NC` the value was 1.96 min; for `CC(=O)Oc1ccc(-c2cnc3ccccc3n2)cc1`, 13.9 min; for `CN(C)c1nc(N)nc(N(C)C)n1`, 8.03 min.
Take `CC1(C)OCOC1=CC[N+](C)(C)C`: the LC retention time amounted to 7.65 min.
As to `Cc1c(C(=O)Nc2ccccn2)c(C(C)N=Nc2ccccc2)cc(=O)n1-c1ccccn1` (configuration not stated), the LC retention time turned out to be 11.7 min.
As for `CN(C)c1ccc(C=C2Nc3ccccc3C2=O)cc1`, the LC retention time amounted to 13.7 min.
Take `c1ccc(CN2CCN(Cc3ccccc3)C2c2cccs2)cc1`: the LC retention time was found to be 11 min.
`CCn1c2ccccc2c2cc(N)ccc21`: the LC retention time was found to be 9.76 min.
Turning to `c1ccc(Nc2ncnc3nc[nH]c23)cc1`, the LC retention time is 8.8 min.
Under `Cc1cc(C)c(NC(=O)c2ccncc2)c(C)c1` stands 10.4 min.
Regarding `COC(=O)c1c(C)[nH]c(-c2ccccc2)c1-c1ccccc1`, the LC retention time worked out at 15.6 min.
On to `Nc1cccc(C2OCCCO2)c1`, for which the LC retention time came out at 7.87 min.
For the compound `Cn1c(=O)c2ccc(C(=O)Nc3ccc4ccccc4n3)cc2c(=O)n1C`, the LC retention time turned out to be 10.4 min.
As for `O=C(O)C1CCCCC1C(=O)Nc1ccc2c(c1)CCCC2` (configuration not stated), the LC retention time worked out at 13.8 min.
On to `Cc1ccc(NC(=O)C(=O)NCCN2CCN(C(=O)c3ccccc3)CC2)cc1`, for which the LC retention time worked out at 9.8 min.
`Cc1cccc(-n2c(C)cc(C=NNC(N)=S)c2C)c1C`: the LC retention time was found to be 14.4 min.
Regarding `CC(=O)N1CCc2cc(C(=O)O)ccc21`, the LC retention time was determined as 8.48 min.
As to `c1ccc(N=c2scc(-c3ccccc3)n2-c2ccccc2)cc1`, the LC retention time is 12.4 min.
For `CC(=NNC(=O)C[n+]1ccccc1)c1ccccc1` the value was 8.76 min; for `COC(=O)Cn1ncccc1=O`, 6.64 min.
As for `CCOC1COCC1N` (configuration not stated), the LC retention time is 6.48 min.
Regarding `Cc1ccc(N(C)C)cc1`, the LC retention time was determined as 8.12 min.
Take `COc1ccc(C=CC(=O)C=Cc2ccc(OC)cc2OC)c(OC)c1`: the LC retention time was found to be 16.6 min.
For `CCN(CC)CCOC(=O)C(c1ccccc1)C1CCCCC1` (configuration not stated) the value was 13 min; for `Cc1cc(C)[nH]n1`, 6.99 min.
For `Cc1cc[n+](CCc2ccccc2)cc1C`, the LC retention time came out at 9.48 min.
As for `COCCCN1CCC(CN)C1` (configuration not stated), the LC retention time came to 7.37 min.
For the compound `Cc1ccccc1CN1CCN(Cc2c[nH]c3ccccc23)CC1`, the LC retention time came out at 10.8 min.
With `COC(=O)C1C(O)CCC2CN3CCc4c([nH]c5ccccc45)C3CC21` (configuration not stated), the LC retention time stood at 9.64 min.
For the compound `COc1ccc(C=CC(C)=O)cc1`, the LC retention time was 12 min.
`Cc1ccc(C)nc1`: the LC retention time came to 6.66 min.
On to `CC1=Nc2ccccc2Sc2ccccc21`, for which the LC retention time amounted to 14.5 min.
As for `Nc1ccc2c(c1)COc1ccccc1O2`, the LC retention time is 10.5 min.
With `Cc1cc(C)c2[nH]c3c(c2c1)CCCC3=O`, the LC retention time amounted to 14.8 min.
For the compound `Cc1ccc(C=NNC(=O)C(=O)NC(C)C)o1`, the LC retention time stood at 9.79 min.
As for `CCOc1ccc(N2C(=O)CC(N(Cc3ccc4c(c3)OCO4)C(C)=O)C2=O)cc1` (configuration not stated), the LC retention time was 12.5 min.
In the case of `O=Cc1c(-c2ccccc2)c(C=O)n2ccccc12`, the LC retention time is 13.9 min.
For `Cc1nnc(N)[nH]c1=O` the value was 2.72 min; for `NC(CC(=O)O)c1ccc(C(=O)O)cc1` (configuration not stated), 6.32 min; for `Cc1[nH]n(-c2ccccc2)c(=O)c1C=O`, 8.21 min.
For `c1cncc(-c2ncc[nH]2)c1`, the LC retention time stood at 6.65 min.
Consider `CCC(=O)Nc1ccc(NCC(=O)Nc2ccc(C)cc2C)cc1`, for which the LC retention time amounted to 11.1 min.
In the case of `CN(C)CCCN(C)C`, the LC retention time stood at 7.19 min.
For `Cn1c(O)c(Cc2ccc(OCc3ccccc3)cc2)c(=O)n(C)c1=O` the value was 15 min.
With `Cc1ccc2c(CN3CCNCC3)cc(=O)oc2c1`, the LC retention time is 8.81 min.
Take `NCc1cccc(CN)c1`: the LC retention time is 7.04 min.
Regarding `CCC1NC(=O)NC(C)=C1C(C)=O` (configuration not stated), the LC retention time came out at 7.34 min.
`CCCCOc1cc(C(=O)NCCN(CC)CC)c2ccccc2n1`: the LC retention time turned out to be 11.8 min.
Under `S=C1NCN(Cc2ccccc2)CN1` stands 8.28 min.
As to `c1ccc(N2CCNCC2)cc1`, the LC retention time was 8 min.
Under `CC(=O)Nc1ccccn1` stands 6.5 min; under `c1ccc2c(c1)CCN2`, 7.26 min; under `CC1CNCC(C)N1` (configuration not stated), 6.7 min.
`c1ccc(CN2CCCC2)nc1`: the LC retention time was found to be 7.01 min.
For `CC(=O)Oc1ccccc1C=Cc1nc2ccccc2c(=O)o1` the value was 14.8 min.
For `Cc1cccc(NC(=S)NNC(=O)c2cccc(C)c2)c1` the value was 12.3 min; for `CCOC1CCC2CC3C4CCC(O)C5OC1C2C45CCN3C` (configuration not stated), 8.78 min; for `CC1=C(C(=O)c2ccccc2)CC(C(=O)c2ccccc2)=C(C)N1`, 13.2 min.
For `Cc1ccc(-c2cc(-c3ccc(C)cc3)on2)cc1`, the LC retention time was found to be 18.8 min.
With `O=C(O)CNC(=O)C1CCCCC1`, the LC retention time was 8.07 min.
For `Cc1n[nH]c(=O)nc1NC1CCCCC1` the value was 8.28 min; for `O=C(O)CCCNC(=O)CCCCCCCC(=O)NCCCC(=O)O`, 7.58 min.
For `CN(C)CCCNCCCN`, the LC retention time turned out to be 7.35 min.
As to `NCCCN1CCc2ccccc21`, the LC retention time came to 8.54 min.
Turning to `Cc1ccc(-c2cnc3ccccc3n2)cc1`, the LC retention time worked out at 16.3 min.
For `CN(C)C1CCCCC1`, the LC retention time amounted to 7.57 min.
Turning to `CCCCNC(=O)c1c[nH]c2ccccc2c1=O`, the LC retention time was found to be 12.9 min.
Turning to `CCc1cccnc1`, the LC retention time is 6.88 min.
As to `O=c1[nH]c(N=NCc2c[nH]c3ccccc23)nnc1-c1ccccc1`, the LC retention time is 11.8 min.
For `c1ccc(CNc2ccccn2)cc1` the value was 8.6 min.
Take `Nc1cccc(C2=NCCN2)c1`: the LC retention time turned out to be 6.85 min.
As for `Cc1ccccc1CN`, the LC retention time was 7.83 min.
For `O=C1NN=C(c2ccccc2)CC1c1c[nH]c2ccccc12` (configuration not stated), the LC retention time came to 12.3 min.
With `O=C(Nc1ccc(Cc2ccncc2)cc1)c1ccc2ccccc2n1`, the LC retention time amounted to 11.4 min.
With `Cc1ccc2[nH]c(=O)c(=O)[nH]c2c1C`, the LC retention time is 8.13 min.
As for `CN(C)C(=O)c1ccc(N=CNc2ccc(C(=O)N(C)C)cc2)cc1`, the LC retention time came to 9.51 min.
As for `Cc1cc(C(c2cc(C)c(N)c(C)c2)c2ccco2)cc(C)c1N`, the LC retention time turned out to be 12.1 min.
For `Nc1ccccc1OCCOc1ccccc1N`, the LC retention time was 8.96 min.
Under `COc1cccc2c1NC(C)(C)CC2C` (configuration not stated) stands 12.3 min; under `CCC(=O)Nc1ccc(N2CCN(C(=O)C(C)C)CC2)cc1`, 9.46 min.
Under `CCN(CC)CC` stands 7.12 min.
For the compound `CN1CCOC1=O`, the LC retention time came to 3.96 min.
